Measurements taken from ChEMBL document CHEMBL4627370, “Discovery of δ opioid receptor full agonists lacking a basic nitrogen atom and their antidepressant-like effects” (Bioorg Med Chem Lett, 2020).
Calls of active or inactive are those of the source. No cut-off for these calls is given here.

Tests used:
Mus musculus [1] = experiment: Antidepressant activity in sc dosed mouse assessed as decrease in total immobility count by forced swim test; type: functional, organism-based
Mus musculus [2] = experiment: Antidepressant activity in sc dosed mouse assessed as increase in total swimming count by forced swim test; type: functional, organism-based
Mus musculus [3] = experiment: Antidepressant activity in sc dosed mouse assessed as increase in climbing count by forced swim test; type: functional, organism-based
Mus musculus [4] = experiment: Antidepressant activity in mouse at 10 mg/kg, sc by forced swim tes; type: functional, organism-based
[5] = biological target: T1, Delta-type opioid receptor (Homo sapiens, UniProt P41143); experiment: Displacement of [3H]DPDPE from human delta opioid receptor expressed in CHO cells; type: cell-based
T1 sequence (P41143 whole entry): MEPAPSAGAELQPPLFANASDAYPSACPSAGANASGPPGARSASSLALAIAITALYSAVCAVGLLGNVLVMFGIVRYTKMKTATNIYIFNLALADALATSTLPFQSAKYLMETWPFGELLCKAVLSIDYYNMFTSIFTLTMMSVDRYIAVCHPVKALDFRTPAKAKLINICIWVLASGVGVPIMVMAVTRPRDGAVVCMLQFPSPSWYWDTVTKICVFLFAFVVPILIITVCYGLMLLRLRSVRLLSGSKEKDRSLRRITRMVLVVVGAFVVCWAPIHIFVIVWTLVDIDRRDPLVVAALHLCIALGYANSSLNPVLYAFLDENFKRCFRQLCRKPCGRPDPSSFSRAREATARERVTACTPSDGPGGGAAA

Mu-type opioid receptor = Mu-type opioid receptor (Homo sapiens, UniProt P35372); experiment: Displacement of [3H]DAMGO from human mu opioid receptor expressed in CHO cells; type: cell-based
Chain of Mu-type opioid receptor (P35372 whole entry): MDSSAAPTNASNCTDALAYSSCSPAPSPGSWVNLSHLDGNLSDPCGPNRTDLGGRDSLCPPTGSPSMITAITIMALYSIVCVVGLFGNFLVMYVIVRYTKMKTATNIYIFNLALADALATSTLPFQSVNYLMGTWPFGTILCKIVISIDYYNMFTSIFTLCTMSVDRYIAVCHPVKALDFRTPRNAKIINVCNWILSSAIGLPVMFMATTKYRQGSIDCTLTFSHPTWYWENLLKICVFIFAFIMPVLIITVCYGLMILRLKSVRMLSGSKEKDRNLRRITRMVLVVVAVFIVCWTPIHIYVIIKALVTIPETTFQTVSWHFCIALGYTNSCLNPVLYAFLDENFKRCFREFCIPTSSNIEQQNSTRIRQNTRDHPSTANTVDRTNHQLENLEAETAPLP

[6] = biological target: Kappa-type opioid receptor (Homo sapiens, UniProt P41145); experiment: Displacement of [3H]U69593 from human kappa opioid receptor expressed in CHO cells; type: cell-based
Chain of Kappa-type opioid receptor (P41145 whole entry): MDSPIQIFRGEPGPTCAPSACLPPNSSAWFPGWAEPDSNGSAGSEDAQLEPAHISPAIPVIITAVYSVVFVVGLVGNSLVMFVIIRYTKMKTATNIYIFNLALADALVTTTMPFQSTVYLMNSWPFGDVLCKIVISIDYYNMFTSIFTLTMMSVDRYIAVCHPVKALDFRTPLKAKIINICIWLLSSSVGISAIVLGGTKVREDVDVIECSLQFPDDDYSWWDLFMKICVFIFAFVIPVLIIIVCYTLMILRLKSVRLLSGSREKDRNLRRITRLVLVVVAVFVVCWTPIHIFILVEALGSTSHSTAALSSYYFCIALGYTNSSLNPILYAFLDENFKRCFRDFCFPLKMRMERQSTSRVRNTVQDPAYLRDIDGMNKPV

Homo sapiens [7] = organism: Homo sapiens; experiment: Selectivity ratio for Ki for displacement of [3H]DAMGO from human mu opioid receptor expressed in CHO cells to Ki for displacement of [3H]DPDPE from human DOR expressed in CHO cells; type: cell-based
Homo sapiens [8] = organism: Homo sapiens; experiment: Selectivity ratio for Ki for displacement of [3H]U69593 from human kappa opioid receptor expressed in CHO cells to Ki for displacement of [3H]DPDPE from human DOR expressed in CHO cells; type: cell-based
[9] = biological target: T1, Delta-type opioid receptor; experiment: Agonist activity at human delta opioid receptor expressed in CHO cell membranes by [35S]GTPgammaS binding assay; type: functional
[10] = biological target: T1, Delta-type opioid receptor; experiment: Agonist activity at human delta opioid receptor expressed in CHO cell membranes by [35S]GTPgammaS binding assay relative to control; type: functional
[11] = biological target: T1, Delta-type opioid receptor; experiment: Inverse agonist activity at human delta opioid receptor expressed in CHO cell membranes by [35S]GTPgammaS binding assay; type: functional
Mus musculus [12] = experiment: Antidepressant activity in mouse at 3 mg/kg, sc by forced swim test; type: functional, organism-based

| Compound | Activity (Mus musculus [1]) | Activity (Mus musculus [2]) | Activity (Mus musculus [3]) | Activity (Mus musculus [4]) | Ki [5] [nM] | Ki (Mu-type opioid receptor) [nM] | Ki [6] [nM] | Ratio Ki (Homo sapiens [7]) | Ratio Ki (Homo sapiens [8]) | EC50 [9] [nM] | Emax [10] [%] | EC50 [11] [nM] | Activity (Mus musculus [12]) |
| --- | --- | --- | --- | --- | --- | --- | --- | --- | --- | --- | --- | --- | --- |
| CN1CC[C@]23Cc4nc5ccccc5cc4C[C@@]2(O)[C@H]1Cc1ccc(O)cc13 | Dose-dependent effect | Dose-dependent effect | Dose-dependent effect | Active | – | – | – | – | – | – | – | – | – |
| O=C(Cc1ccccc1)N1CC[C@]23c4c5ccc(O)c4O[C@H]2c2[nH]c4ccccc4c2C[C@@]3(O)[C@H]1C5 | – | – | – | – | 41.5 | 8670 | 5990 | 209 | 144 | 132 | 97.5 | – | – |
| COC1=CC=C2C[C@H]3N(C(=O)C4CC4)CC[C@]45C2C1O[C@H]4c1[nH]c2ccccc2c1C[C@@]35O (stereo partly specified) | – | – | – | – | – | – | – | – | – | – | – | 322 | – |
| O=C(CCc1ccccc1)N1CC[C@]23c4c5ccc(O)c4O[C@H]2c2[nH]c4ccccc4c2C[C@@]3(O)[C@H]1C5 | – | – | – | – | 89 | 3480 | 2150 | 39.2 | 24.2 | 127 | 88.5 | – | – |
| O=C(Cc1ccccc1)N1CC[C@]23Cc4nc5ccccc5cc4C[C@@]2(O)[C@H]1Cc1ccc(O)cc13 | Dose-dependent effect | Dose-dependent effect | Dose-dependent effect | – | 26 | – | – | – | – | 14.4 | 125 | – | Active |
| O=C(CCc1ccccc1)N1CC[C@]23Cc4nc5ccccc5cc4C[C@@]2(O)[C@H]1Cc1ccc(O)cc13 | – | – | – | – | 4.17 | 1790 | – | 430 | – | 10.4 | 123 | – | – |
